# Reference: patent US20160102336A1, “FLUORESCENT PROBE FOR DETECTING ACTIVITY OF CALPAIN” (THE UNIVERSITY OF TOKYO, priority 2013, published 2016)
# *1 amine or outer side, *2 acyl side, *3 side chain or, on linkers, in order; H or OH if unused. Where a SMILES comes first, the peptide text is derived from it. The star is where a group is joined. X1 = Cc1ccccc1C1=C2C=CC(=N)C=C2[Si](C)(C)c2cc(N*)ccc21; Suc = O=C(CCC(=O)[*:2])[*:1]
# What was measured:
# [1] = Measurement of the optical characteristics; type: physicochemical; details: for Absmax / Emmax / Φn / ε: 0.1 sodium phosphate buffer with pH 3 containing 1% DMSO
# Method: The optical characteristics of Suc-LLVY-SiR600 and Boc-LM-SiR600 were measured in a 0.1 sodium phosphate buffer with pH 3 containing 1% DMSO.
# calpain-1 = biological target: T1, calpain-1 (Homo sapiens, UniProt P07384); assay: Evaluation as a calpain fluorescent probe (fluorescence spectrum after addition of calpain-1); type: biochemical
# T1 sequence (P07384 1-714): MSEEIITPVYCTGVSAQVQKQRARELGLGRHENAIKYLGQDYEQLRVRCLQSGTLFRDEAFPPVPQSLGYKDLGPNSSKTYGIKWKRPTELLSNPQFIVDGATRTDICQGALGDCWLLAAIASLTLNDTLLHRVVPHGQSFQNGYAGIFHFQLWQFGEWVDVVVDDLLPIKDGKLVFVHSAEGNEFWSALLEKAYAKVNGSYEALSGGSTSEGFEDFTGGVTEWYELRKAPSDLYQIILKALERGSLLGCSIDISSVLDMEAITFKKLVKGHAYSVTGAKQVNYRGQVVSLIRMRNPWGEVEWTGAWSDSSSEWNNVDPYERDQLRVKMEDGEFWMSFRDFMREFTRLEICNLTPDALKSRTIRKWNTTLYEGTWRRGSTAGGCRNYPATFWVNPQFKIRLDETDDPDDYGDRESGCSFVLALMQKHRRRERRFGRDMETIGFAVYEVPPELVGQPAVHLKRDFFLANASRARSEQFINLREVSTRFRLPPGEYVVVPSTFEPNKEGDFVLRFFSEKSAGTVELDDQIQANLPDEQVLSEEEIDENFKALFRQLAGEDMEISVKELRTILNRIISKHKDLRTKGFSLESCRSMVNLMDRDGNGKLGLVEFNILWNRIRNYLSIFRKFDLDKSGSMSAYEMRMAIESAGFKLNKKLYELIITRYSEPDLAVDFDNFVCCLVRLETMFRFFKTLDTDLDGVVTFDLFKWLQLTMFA
# T1 sequence (P04632 1-268 partner): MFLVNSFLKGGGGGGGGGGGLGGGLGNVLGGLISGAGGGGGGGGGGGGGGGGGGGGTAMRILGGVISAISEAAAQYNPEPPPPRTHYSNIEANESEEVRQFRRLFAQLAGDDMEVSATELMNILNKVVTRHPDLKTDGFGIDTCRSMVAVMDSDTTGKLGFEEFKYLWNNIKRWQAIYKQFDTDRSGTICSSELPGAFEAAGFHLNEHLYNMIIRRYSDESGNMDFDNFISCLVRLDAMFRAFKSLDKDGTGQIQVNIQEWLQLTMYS
# Method: FIGS. 1(c) to 1(e) show the fluorescence spectrum 10 to 60 minutes later from addition of 5 μg calpain-1 to the Suc-LLVY-SiR600 solution (2 μM).
# In FIGS. 1(b) to 1(e), the reaction was carried out in a 0.75-mL of 20-mM HEPES buffer solution (pH 7.4) containing 100-μM DTT, 10% glycerol, 0.1% CHAPS, 100-mM NaCl, 1-mM EDTA, and 1.5-mM CaCl2, and containing 1% DMSO as a cosolvent.
# In FIG. 1(d), the reaction was carried out in the absence of 1.5-mM CaCl2, and in FIG. 1(e), the reaction was carried out in the presence of 1-μM calpeptin.
# The reaction temperature was 25° C. in FIGS. 1(b), 1(d), and 1(e), and 37° C. in FIG. 1(c).
# In FIGS. 2(b) and 2(c), the reaction was carried out in a 0.75-mL of 20-mM HEPES buffer solution (pH 7.4) containing 100-μM DTT, 10% glycerol, 0.1% CHAPS, 100-mM NaCl, 1-mM EDTA, and 1.5-mM CaCl2, and containing 1% DMSO as a cosolvent. In FIG. 2(c), the reaction was carried out in the presence of 1-μM calpeptin, and in FIG. 2(b), the reaction was carried out in the absence of calpeptin.
# The reaction temperature was 25° C. in FIGS. 2(b) and 2(c), and the excitation wavelength was 593 nm.
# [2] = test system: Calpain activity in HeLa cells; assay: Imaging of calpain activity in HeLa cells (confocal microscope); type: cell-based
# Method: (§1) Hela cells were incubated for 10 minutes at 37° C. using (a) Hank's balanced salt solution (HBSS) containing DMSO as a control, and (b) HBSS containing 20-11M calpeptin, and further incubation for 20 minutes was carried out in 2-μM Suc-LLVY-SiR600. A fluorescence image and a differential interference image were then taken using a confocal microscope. The scale bar in the drawings is 20 μm.
# (§2) Statistical analysis was carried out using Student's t-test (n=18).
# [3] = test system: Calpain activity in A549 cells; assay: Imaging of calpain activity in A549 cells (confocal microscope); type: cell-based; details: 2-μM Suc-LLVY-SiR600, 20 minutes, HBSS, 37° C.
# Method: as §1, with “A549” for “Hela”, “20-μM” for “20-11M”
# as §2
Compound,Absmax [1] [nm],Emmax [1] [nm],Φn [1],ε [1],"increase in fluorescence of Boc-LM-SiR600 with calpain-1 when calpeptin was added (calpain-1; 1-μM calpeptin, Boc-LM-SiR600 2 μM, 5 μg calpain-1, 25° C.)","increase in fluorescence of Suc-LLVY-SiR600 with calpain-1 when calpeptin is added (calpain-1; 1-μM calpeptin, Suc-LLVY-SiR600 2 μM, 5 μg calpain-1, 25° C.)","fluorescence intensity in HeLa cells on addition of calpeptin ([2]; 20-11M calpeptin 10 minutes at 37° C., then 2-μM Suc-LLVY-SiR600 20 minutes)","increase in fluorescence in a solution that does not contain Ca^2+ (calpain-1; probe 2 μM, 5 μg calpain-1, 10 to 60 minutes, absence of 1.5-mM CaCl2, 25° C.)","fluorescence after the reaction with calpain-1 (calpain-1; probe 2 μM, 5 μg calpain-1, 180 minutes, HEPES buffer pH 7.4 with 1.5-mM CaCl2, 25° C., excitation 593 nm)","fluorescence before the reaction with calpain-1 (calpain-1; probe 2 μM, excitation 593 nm, before addition of calpain-1, 25° C.)",absorption of light near maximum absorption (593 nm) of 2MeSiR600 ([1]; near 593 nm),"visualization of calpain activity in HeLa cells ([2]; 2-μM Suc-LLVY-SiR600, 20 minutes, HBSS, 37° C.)",visualization of calpain activity in A549 cells [3]
2Me SiR600 [reference compound],593,613,0.38,"91,000 M^−1cm^−1",,,,,,,,,
"CCCC[C@@H](C=O)NC(=O)[C@H](CC(C)C)NC(=O)OCc1ccccc1 [calpeptin, reference compound]",,,,,an increase in fluorescence did not occur,an increase in fluorescence does not occur,fluorescence intensity in the cells was reduced,,,,,,
Cc1ccccc1C1=C2C=CC(=N)C=C2[Si](C)(C)c2cc(NC(=O)[C@H](Cc3ccc(O)cc3)NC(=O)[C@@H](NC(=O)[C@H](CC(C)C)NC(=O)[C@H](CC(C)C)NC(=O)CCC(=O)O)C(C)C)ccc21 [Suc-LLVY-SiR600] (Suc-LLVY-X1),497,590,0.03,"25,000 M^−1cm^−1",,,,an increase in fluorescence does not occur,high-intensity fluorescence was observed,fluorescence was mostly unobserved,did not absorb light,calpain activity in HeLa cells can be monitored,calpain activity in cells was successfully visualized
